From patent US20140155445A1, “Compounds and Methods for Treating Cancer and Diseases of the Central Nervous System” (Osta Biotechnologies Inc., priority 2007, published 2014)
“Also recorded” adds a separate entry of the source.

Legend:
[1] = test system: OVCAR-3 (human ovarian carcinoma); assay: Ovarian carcinoma model OVCAR-3 in SCID mice; format: in vivo; details: QC-56 60 mg/kg/ip; CDDP 3 mg/kg
Description: • Species and strain: […] OVCAR-3 (human ovarian carcinoma). […] Control groups received the vehicle alone.

[2] = test system: B16-BL6 cells (mouse melanoma); assay: B16-BL6 melanoma lung metastasis model; format: in vivo; details: QC-56 60 mg/kg i.p.; vehicle group 101 nodules
Method: • Species and strain: […] B16-BL6 cells (mouse melanoma). B16-BL6 metastatic variant was derived from B16-F10. This cell variant was obtained from Dr. Linda D. Williams, Dept. of Cancer Biology, MD Anderson Cancer Center, Texas, USA. […] Cells were maintained at 37° C. in a humidified atmosphere (5% CO2, 95% air). […] Control groups received the vehicle alone.

[3] = test system: hHO-1 transfected primary rat astroglial cultures; assay: Protein carbonyl ELISA in hHO-1-transfected primary rat astroglia (whole-cell and mitochondrial compartments); format: cell-based
Method: Cells were grown in Ham's F12 and high glucose DMEM (50:50 v/v) supplemented with 10 mM HEPES, 5% heat-inactivated horse serum, 5% heat-inactivated fetal bovine serum, and penicillin-streptomycin (50 U/mL and 50 μg/mL, respectively).
(§1) Upon reaching >90% confluence, 1×10^6 cells were transiently transfected with 4.0 μg of plasmid DNA-Lipofectamine 2000 complex using Lipofectamine 2000 method according to manufacturer instructions (Invitrogen). […] 12 μg of plasmid DNA and 16 μl of Lipofectamine 2000 reagent were diluted in 1.5 mL opti-MEM I reduced serum medium and incubated for 5 minutes at room temperature with gentle mixing. The two solutions were combined, incubated at room temperature for 20 minutes to promote formation of DNA-lipid complexes and administered to the cells. 2 mL opti-MEM I reduced serum medium was added to the flasks to ensure coverage of the monolayer by the transfection mixture. Following incubation for 6 hours at 37° C., the transfection mixture was replaced with 10 mL of complete media without antibiotics.
The cells were sonicated (Sonics & Materials, Danbury, Conn.) at a power level of 50 for 3×20 s in a cooled water bath. […] Whole-cell and mitochondrial preparations were assayed for protein carbonyls as described below.
Protein carbonyls were reacted with 2,4-dinitrophenylhydrazine (DNP) and the hydrazone adducts were detected with anti-DNP antisera. Quantification was achieved by comparison with oxidized BSA standards. Oxidized (carbonylated) BSA was prepared by reacting natural BSA (at 50 mg/mL in PBS) with hypochlorous acid (5 mM) for 1 h at 37° C., followed by overnight dialysis against PBS at 4° C. […] The pellet was resuspended in 2 mL of same buffer, sonicated on ice 2×15 s at 20 W and centrifuged for 20 min at 4° C. at 1,303×g. Protein concentration of supernatant was measured with the RC DC protein assay based on the Lowry protocol (Bio-Rad Laboratories, Hercules, Calif.). All samples were adjusted to 4.0 mg protein/mL. […] Five microliters aliquots of each reaction mixture were mixed with 1 mL PBS and 200 μL replicates were added per well to 96-well immunoplates and incubated overnight at 4° C. After washing with PBS, nonspecific binding sites were blocked with 0.1% Tween 20 in PBS. […] A 6-point standard curve of reduced and oxidized BSA was generated for each plate analyzed. Specific absorbance for each sample was calculated by subtracting basal absorbance of the DNP reagent from the total absorbance.

[4] = target: T1, human HO-1 (hHO-1) in transfected astroglia (Homo sapiens, UniProt P09601); assay: HO enzyme activity (bilirubin formation) in hHO-1-transfected astrocytes; format: cell-based
T1 construct: containing the entire protein-coding region (866 bp) of the human HO-1 gene; expressed in transfected cells; host or cells: primary rat astrocytes, transient transfection with pcDNA3.1/Zeo.CMV.Flag.hHO-1 (Lipofectamine 2000)
T1 sequence (P09601 1-288): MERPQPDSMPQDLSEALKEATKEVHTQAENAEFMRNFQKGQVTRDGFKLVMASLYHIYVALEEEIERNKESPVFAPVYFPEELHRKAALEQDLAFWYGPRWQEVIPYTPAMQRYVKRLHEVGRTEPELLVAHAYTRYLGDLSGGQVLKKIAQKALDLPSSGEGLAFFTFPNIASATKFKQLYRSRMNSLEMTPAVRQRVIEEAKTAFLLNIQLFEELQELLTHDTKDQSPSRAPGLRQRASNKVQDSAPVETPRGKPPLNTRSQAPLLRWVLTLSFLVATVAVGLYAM
Method: as §1
A young adult male rat was gas-anesthetized, laid on ice and systemically perfused with ice-cold 0.9% NaCl to get rid of all blood from liver. The liver was then excised on ice and transferred to a cold room (4° C.) and cut into small pieces in cold 0.9% NaCl (3 mL per gram of tissue) with surgical scissors in and placed in a 50 mL tube. The tissue chunks were homogenized with an electric tissue homogenizer and centrifuged at 150×g for […] at 4° C. Similarly, all of the following steps, including centrifugations, were performed at 4° C. The supernatant was centrifuged at 18,000×g for 10 min and further at 30,000×g for 30 min. A saturated solution of ammonium sulfate was added to the 30,000×g supernatant to attain 40% saturation and placed on ice for 10 min. The mixture was centrifuged at 10,000×g for 10 min and supernatant was recovered and transferred to a fresh tube. Sixty percent of saturation was achieved by adding saturation solution of ammonium sulfate to the supernatant. The mixed solution was centrifuged again at 10,000×g for 10 min and […]. […] The dialysate was centrifuged at 10,000 g for 10 min and pellet was discarded. The protein concentration of the supernatant was measured with Bradford reagent (BioRad laboratories, Hercules, Calif.) and adjusted to 10 mg/mL with 0.01 M KPO4, pH7.4. The supernatant was aliquoted and stored at −20° C. ready for use.
Cytosol extracts were prepared for HO activity measurement by the method of Ryter (Ryter, Kvam, Tyrrell 2000). Astroglial monolayers were washed with ice-cold PBS and scraped in ice-cold PBS-EDTA (1 mM, pH 8.0) containing 50 μg/mL protease inhibitor (AEBSF), centrifuged at 150×g at 4° C. and resuspended in 20 mM Tris-HCl (pH 7.4) and 0.25 M sucrose containing protease inhibitors. Cell suspensions were sonicated on ice 2×15 s at 20 W and centrifuged for 20 min at 4° C. at 15,000×g. Protein concentration of supernatant was measured with Bradford method. […] Reaction mixtures were incubated at 37° C. in the dark for 60 min with hard vortex every 10 min. […] HO activity was calculated as nanomoles bilirubin per milligram protein per min, assuming an extinction coefficient of 40/mM/cm in chloroform (see FIG. 8).
Cells were rinsed twice with cold PBS (pH 7.4) and scraped in iced lysis buffer consisting of 1% Nonidet P-40, 50 mM Tris.HCl (pH 7.4), 30 mM NaCl, 25 mM β-glycerophosphate, 10 mM EDTA, 10 mM EGTA, 1 mM MgCl2, and protease inhibitors (10 mM sodium fluoride, 50 μg/mL AEBBSF, 5 μg/mL leupeptin, 5 μg/mL pepstatin, 5 μg/mL aprotinin). […] Protein contents were determined using the Bradford method. […]

SKMEL-V+ cells = assay: Melanoma efficacy study of QC-199, SKMEL-V+ cells s.c. in Scid mice; format: in vivo, human; details: 10 mg/kg i.v. injection, 2 cycles, d1, 3, 5 per cycle
Method: BD PharMingen, San Diego, Calif.). Cryostat sections were used for CD31 staining. […] Sections were rehydrated in PBS and then blocked with 5% normal goat serum for 1 h. The sections were then incubated overnight at 4° C. with CD31 antibody diluted 1:25 in 3% BSA-PBS. […] Sections were counterstained with Harris' hematoxylin and mounted. Slides were analyzed by conventional light microscopy and photographed using color slides (Eastman Kodak, Rochester, N.Y.). Balb/c Scid mice, 6 week-old, were obtained from Charles River Laboratories, St. Zotique, PQ, Canada. The mice weighed 18-22 g. The experiments were approved by the Animal Care Committee, McGill University, Montreal. The animals were housed in individual cages (4 per cage) and were fed standard rodent chow and water ad libitum. […] When the tumors become palpable (size of a rice), mice weights were measured with a digital balance accurate to 0.05 g. […] For the infusion, mice were anesthetized using isoflurane-based system ([…] COMPACT NRB, 3975-0800-000). For the infusion, a mini pump (NE-1800, New Era Pump Systems, Inc.) was used to infuse the compound via the tail vein during a 2 h period. […] At experiment termination, mice were anesthetized with isoflurane and sacrificed by cervical dislocation. Tumors were dissected and tumor weights were measured using a digital balance.

[5] = test system: SKMEL 28-V+ cells (human melanoma); assay: Melanoma model SKMEL-V+ in SCID mice (combination study); format: in vivo; details: QC-56 60 mg/kg/ip; Dacarbazine 55 mg/kg
Method: SKMEL 28-V+ cells (human melanoma). These cells were originally from the ATCC and then engineered to overexpress VEGF. […] The cells were tested to be free of mycoplasma.
(§2) Control groups received the vehicle alone.

[6] = test system: HCT-116 colorectal carcinoma; assay: Colorectal carcinoma model HCT-116 in SCID mice; format: in vivo, human
Description: as §2

Question: What does the source list for N.N.[Cl][Pt][Cl] [cisplatin, reference compound]?
Answer: tumor size on the day of sacrifice [1]: 0.63±0.06 cm^3; macroscopic nodules in the lungs (average) [2]: 60

Question: Cl.FC[C@@H]1CO[C@@](CCc2ccc(Cl)cc2)(Cn2ccnc2)O1 [QC-47, (2R,4S)-2-[2-(4-Chlorophenyl)ethyl]-2-[(1H-imidazol-1-yl)methyl]-4-(fluoromethyl)-1,3-dioxolane hydrochloride] was tested. Which “oxidative protein damage (protein carbonyls) accruing from hHO-1 transfection” value ([3]; 6.5 μM) did it give?
Answer: significantly attenuated

Question: And the “dose dependence of attenuation of oxidative protein damage” value ([3]; transiently transfected rat astroglia, hydrochloride)?
Answer: significant dose dependant attenuations; also recorded: in a dose dependent manner significantly decreased

Question: What about the “HO activity in HO-1-transfected astroglia” value ([4]; 6.5 μM, 18 h, hHO-1-transfected cells, hydrochloride) of the same compound?
Answer: suppressed to levels akin to those of non-transfected and sham-transfected controls; also recorded: significantly attenuated; also recorded: significantly decreased

Question: And the “expression level of flag-tagged HO-1 protein” value ([4]; 6.5 μM, transiently transfected cells)?
Answer: without affecting the expression level of flag-tagged HO-1 protein

Question: What about the IC50 ([4]; concentration of QC-47 used on HO-1-transfected astroglia, stated as IC50) of the same compound?
Answer: 6.5 µM

Question: Which results are given for CN(C)/N=N/c1[nH]cnc1C(N)=O [Dacarbazine, reference compound]?
Answer: reduction of tumor volume vs vehicle (SKMEL-V+ cells): 21%; inhibition of tumor growth compared to vehicle alone [5]: approximately 24%; tumor size on the day of sacrifice [5]: 1.30±0.23 cm^3

Question: With O=c1[nH]cc(F)c(=O)[nH]1 [5-FU, reference compound] as the compound, how does the mouse mortality ([6]; 60 mg/kg, HCT-116 model (FIG. 25)) read?
Answer: induced mortality

Question: And the “reduction of tumor volume at the time of sacrifice compared to control” value ([6]; QC-56 60 mg/kg/ip, 5-FU 60 mg/kg/ip reduced to 40 mg/kg)?
Answer: similar
